Columns and labels:
[1] = molecular target: T1, Nav 1.7 (Homo sapiens (Human), UniProt Q15858); experiment: Nav 1.7 IWQ in vitro assay (IonWorks Quattro population patch-clamp); assay type: cell-based; conditions: for IC50: 293 cells stably transfected with Nav 1.7, second part of table, read-out: Nav1.7 IWQ IC50 IP
How it was run: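 HEK293 cells stably expressing Nav 1.7, recorded by automated population patch-clamp with a train of depolarizations producing increasing inactivation. Single compound concentration added during 3–8 min unclamped period, then same protocol repeated. Leak-corrected current at 26th pulse to −20 mV gave percent block (duplicate); IC50 fitted from concentration–block curves.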

[2] = molecular target: T1, Nav 1.7; experiment: Nav 1.7 in vitro PX assay (PatchXpress whole cell voltage clamp); assay type: cell-based; conditions: 293 cells, human Nav1.7, partially inactivated state; read-out: Nav1.7 PX IC50 IP
How it was run: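 HEK293 cells stably expressing human Nav1.7, whole-cell voltage clamp on PatchXpress, held at potential giving 20–50% inactivation; current elicited by 20 msec pulse to −10 mV.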

T1 sequence (Q15858 whole entry): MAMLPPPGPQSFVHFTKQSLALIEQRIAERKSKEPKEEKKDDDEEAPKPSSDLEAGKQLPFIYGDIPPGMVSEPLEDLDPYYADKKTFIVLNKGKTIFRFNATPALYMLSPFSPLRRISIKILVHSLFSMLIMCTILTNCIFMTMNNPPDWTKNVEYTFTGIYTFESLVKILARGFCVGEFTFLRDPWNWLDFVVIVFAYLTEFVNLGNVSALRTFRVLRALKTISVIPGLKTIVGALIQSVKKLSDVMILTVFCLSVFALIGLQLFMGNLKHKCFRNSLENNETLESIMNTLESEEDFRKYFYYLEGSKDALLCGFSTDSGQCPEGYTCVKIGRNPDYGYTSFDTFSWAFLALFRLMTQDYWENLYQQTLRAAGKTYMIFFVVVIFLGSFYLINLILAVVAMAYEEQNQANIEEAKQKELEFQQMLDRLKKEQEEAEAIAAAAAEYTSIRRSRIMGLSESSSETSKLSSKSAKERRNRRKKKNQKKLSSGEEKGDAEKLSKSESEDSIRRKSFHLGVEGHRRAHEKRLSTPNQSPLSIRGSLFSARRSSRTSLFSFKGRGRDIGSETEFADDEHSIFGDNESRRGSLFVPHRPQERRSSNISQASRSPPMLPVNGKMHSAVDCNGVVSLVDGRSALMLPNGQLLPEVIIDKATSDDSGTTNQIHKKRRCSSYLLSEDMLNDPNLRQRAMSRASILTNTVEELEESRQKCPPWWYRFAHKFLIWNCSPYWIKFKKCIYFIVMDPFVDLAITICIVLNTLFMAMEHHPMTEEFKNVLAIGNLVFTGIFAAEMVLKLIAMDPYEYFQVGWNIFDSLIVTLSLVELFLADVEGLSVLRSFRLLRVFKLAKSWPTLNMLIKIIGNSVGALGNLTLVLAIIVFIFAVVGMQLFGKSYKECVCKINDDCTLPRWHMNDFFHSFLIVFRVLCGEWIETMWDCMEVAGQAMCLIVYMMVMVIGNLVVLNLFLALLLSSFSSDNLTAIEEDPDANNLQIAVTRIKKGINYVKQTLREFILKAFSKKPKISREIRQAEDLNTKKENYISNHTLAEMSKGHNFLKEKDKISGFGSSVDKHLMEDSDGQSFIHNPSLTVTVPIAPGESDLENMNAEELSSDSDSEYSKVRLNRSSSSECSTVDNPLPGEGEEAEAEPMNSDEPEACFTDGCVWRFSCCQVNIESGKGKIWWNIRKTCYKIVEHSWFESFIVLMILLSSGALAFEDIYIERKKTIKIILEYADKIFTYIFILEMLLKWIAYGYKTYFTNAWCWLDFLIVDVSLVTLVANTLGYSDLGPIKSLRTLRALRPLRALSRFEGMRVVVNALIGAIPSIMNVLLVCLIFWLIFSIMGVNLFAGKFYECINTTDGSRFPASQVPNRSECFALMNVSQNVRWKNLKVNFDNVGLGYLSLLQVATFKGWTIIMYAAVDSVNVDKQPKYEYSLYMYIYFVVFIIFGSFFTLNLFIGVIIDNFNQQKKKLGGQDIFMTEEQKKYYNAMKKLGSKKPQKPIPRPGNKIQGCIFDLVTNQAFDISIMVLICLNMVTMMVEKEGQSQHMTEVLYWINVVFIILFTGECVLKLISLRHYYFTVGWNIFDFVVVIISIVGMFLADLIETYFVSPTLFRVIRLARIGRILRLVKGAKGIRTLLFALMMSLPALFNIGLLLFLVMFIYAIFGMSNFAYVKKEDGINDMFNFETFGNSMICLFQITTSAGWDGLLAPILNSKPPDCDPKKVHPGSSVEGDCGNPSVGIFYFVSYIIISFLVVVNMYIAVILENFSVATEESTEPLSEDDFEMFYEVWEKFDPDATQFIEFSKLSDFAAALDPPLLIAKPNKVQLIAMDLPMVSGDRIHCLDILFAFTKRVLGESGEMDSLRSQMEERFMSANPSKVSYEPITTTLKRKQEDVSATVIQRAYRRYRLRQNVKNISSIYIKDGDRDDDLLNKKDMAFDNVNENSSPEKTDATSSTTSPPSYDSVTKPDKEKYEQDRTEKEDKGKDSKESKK

Row | IC50 [1] [nM] | IC50 [2] [nM] | Nav1.7 Single Point Data IWQ (at […]) (%) [1] [%] | Structure (SMILES)
1 | 10 | 300 | – | COc1cc(Cl)ccc1-c1ncnc2cc(S(=O)(=O)Nc3nccs3)ccc12 [Example 267, 4-(4-CHLORO-2-METHOXYPHENYL)-N-(THIAZOL-2-YL)QUINAZOLINE-7-SULFONAMIDE]
2 | 320 | 912 | – | COc1cc(C(F)(F)F)ccc1-c1nccc2cc(S(=O)(=O)Nc3nncs3)ccc12 [Example 184, 1-(2-METHOXY-4-(TRIFLUOROMETHYL)PHENYL)-N-(1,3,4-THIADIAZOL-2-YL)ISOQUINOLINE-6-SULFONAMIDE]
3 | – | > 30000 | 54.7 | O=S(=O)(Nc1ccncn1)c1ccc2c(-c3cnn(-c4cccc(Cl)c4)c3)nccc2c1 [Example 429, 1-(1-(3-CHLOROPHENYL)-1H-PYRAZOL-4-YL)-N-(PYRIMIDIN-4-YL)ISOQUINOLINE-6-SULFONAMIDE]
4 | 20 | 211 | – | COc1cc(C#N)ccc1-c1ncc(F)c2cc(S(=O)(=O)Nc3nccs3)ccc12 [Example 214, 1-(4-CYANO-2-METHOXYPHENYL)-4-FLUORO-N-(THIAZOL-2-YL)ISOQUINOLINE-6-SULFONAMIDE]
5 | 2150 | 27400 | – | COCCN1CCCC1c1nccc2cc(S(=O)(=O)Nc3nccs3)ccc12 (centres unmarked) [Example 246, 1-(1-(2-METHOXYETHYL)PYRROLIDIN-2-YL)-N-(THIAZOL-2-YL)ISOQUINOLINE-6-SULFONAMIDE]
6 | 810 | 4190 | – | C[C@@H](COc1ccc(Cl)cc1)Oc1nccc2cc(S(=O)(=O)Nc3ccncn3)ccc12 [Example 131, (S)-1-((1-(4-CHLOROPHENOXY)PROPAN-2-YL)OXY)-N-(PYRIMIDIN-4-YL)ISOQUINOLINE-6-SULFONAMIDE]
7 | 50 | 516 | – | Cn1cncc1-c1cc(C(F)(F)F)ccc1-c1cccc2cc(S(=O)(=O)Nc3ccncn3)ccc12 [Example 123]
8 | 130 | 2660 | – | O=S(=O)(Nc1nccs1)c1ccc2c(-c3ccc(F)cc3-c3ccncc3)nccc2c1 [Example 126, 1-(4-FLUORO-2-(PYRIDIN-4-YL)PHENYL)-N-(THIAZOL-2-YL)ISOQUINOLINE-6-SULFONAMIDE]
9 | 70 | 840 | – | COc1cc(F)ccc1-c1nncc2cc(S(=O)(=O)Nc3ncc(F)s3)ccc12 [Example 256, 1-(4-FLUORO-2-METHOXYPHENYL)-N-(5-FLUOROTHIAZOL-2-YL)PHTHALAZINE-6-SULFONAMIDE]
10 | 460 | 5960 | – | O=S(=O)(Nc1nccs1)c1ccc2c(-c3ccc(F)cc3O)nccc2c1 [Example 189, 1-(4-FLUORO-2-HYDROXYPHENYL)-N-(THIAZOL-2-YL)ISOQUINOLINE-6-SULFONAMIDE]
11 | 10 | 415 | – | COc1ccc(C(F)(F)F)cc1-c1nccc2cc(S(=O)(=O)Nc3ccncn3)ccc12 [Example 139, 1-(2-METHOXY-5-(TRIFLUOROMETHYL)PHENYL)-N-(PYRIMIDIN-4-YL)ISOQUINOLINE-6-SULFONAMIDE]
12 | 70 | 4630 | – | COc1cc(C#N)ccc1-c1ncc(F)c2cc(S(=O)(=O)Nc3ccncn3)ccc12 [Example 218, 1-(4-cyano-2-methoxyphenyl)-4-fluoro-N-(pyrimidin-4-yl)isoquinoline-6-sulfonamide]
13 | 2500 | 3890 | – | COc1cc(C(F)(F)F)ccc1-c1ncc(C#N)c2cc(S(=O)(=O)Nc3ccncn3)ccc12 [Example 242, 4-CYANO-1-(2-METHOXY-4-(TRIFLUOROMETHYL)PHENYL)-N-(PYRIMIDIN-4-YL)ISOQUINOLINE-6-SULFONAMIDE]
14 | 10 | 210 | – | COc1cc(C(F)(F)F)ccc1-c1c(N)cnc2cc(S(=O)(=O)Nc3nccs3)ccc12 [Example 283, 3-AMINO-4-(2-METHOXY-4-(TRIFLUOROMETHYL)PHENYL)-N-(THIAZOL-2-YL)QUINOLINE-7-SULFONAMIDE]
15 | 110 | 2270 | – | NC(=O)c1cc(C(F)(F)F)ccc1-c1nccc2cc(S(=O)(=O)Nc3nccs3)ccc12 [Example 227, 2-(6-(N-(THIAZOL-2-YL)SULFAMOYL)ISOQUINOLIN-1-YL)-5-(TRIFLUOROMETHYL)BENZAMIDE]
16 | 80 | 2410 | – | COc1ccc(F)cc1-c1nccc2cc(S(=O)(=O)Nc3ccncn3)ccc12 [Example 148, 1-(5-FLUORO-2-METHOXYPHENYL)-N-(PYRIMIDIN-4-YL)ISOQUINOLINE-6-SULFONAMIDE]
17 | 30 | 1020 | – | COc1ccc(OC(F)(F)F)cc1-c1nccc2cc(S(=O)(=O)Nc3ccncn3)ccc12 [Example 151, 1-(2-METHOXY-5-(TRIFLUOROMETHOXY)PHENYL)-N-(PYRIMIDIN-4-YL)ISOQUINOLINE-6-SULFONAMIDE]
18 | 20 | 500 | – | COc1cc(C#N)ccc1-c1ccnc2cc(S(=O)(=O)Nc3nccs3)ccc12 [Example 273, 4-(4-CYANO-2-METHOXYPHENYL)-N-(THIAZOL-2-YL)QUINOLINE-7-SULFONAMIDE]
19 | 180 | 692 | – | COc1cc(-c2ccccc2)ccc1-c1cccc2cc(S(=O)(=O)Nc3ccncn3)ccc12 [Example 115]
20 | 3910 | > 30000 | – | N#Cc1cccc(COc2nccc3cc(S(=O)(=O)Nc4ccncn4)ccc23)c1 [Example 137, 1-((3-CYANOBENZYL)OXY)-N-(PYRIMIDIN-4-YL)ISOQUINOLINE-6-SULFONAMIDE]
21 | 460 | 2220 | – | O=S(=O)(Nc1ncns1)c1ccc2c(C3CCCN3Cc3ccccc3)cccc2c1 (centres unmarked) [Example 97]
22 | 90 | 10700 | – | COc1ccccc1-c1nccc2cc(S(=O)(=O)Nc3ccncn3)ccc12 [Example 140, 1-(2-METHOXYPHENYL)-N-(PYRIMIDIN-4-YL)ISOQUINOLINE-6-SULFONAMIDE]
23 | 80 | 323 | – | O=S(=O)(Nc1ncns1)c1ccc2c(C3CCCN3c3ccccn3)cccc2c1 (centres unmarked) [Example 96]
24 | 40 | 439 | – | COc1ccc(C(F)(F)F)cc1-c1nccc2cc(S(=O)(=O)Nc3nccs3)ccc12 [Example 180, 1-(2-METHOXY-5-(TRIFLUOROMETHYL)PHENYL)-N-(THIAZOL-2-YL)ISOQUINOLINE-6-SULFONAMIDE]
25 | > 10000 | 37400 | 32 | COC(=O)c1cccc2cc(S(=O)(=O)Nc3ncns3)ccc12 [Example 318, METHYL 6-(N-(1,2,4-THIADIAZOL-5-YL)SULFAMOYL)-1-NAPHTHOATE]
26 | 290 | 1460 | – | CN(Cc1ccccc1)c1cccc2cc(S(=O)(=O)Nc3ncns3)ccc12 [Example 100, 5-(benzyl(methyl)amino)-N-(1,2,4-thiadiazol-5-yl)naphthalene-2-sulfonamide]
27 | 2140 | 27500 | – | Cc1c(-c2nccc3cc(S(=O)(=O)Nc4nccs4)ccc23)cnn1-c1ccccc1 [Example 208, 1-(5-METHYL-1-PHENYL-1H-PYRAZOL-4-YL)-N-(THIAZOL-2-YL)ISOQUINOLINE-6-SULFONAMIDE 2,2,2-TRIFLUOROACETATE]

Row | Structure (SMILES) | IC50 [1] [nM] | IC50 [2] [nM] | Nav1.7 Single Point Data IWQ (at […]) (%) [1] [%]
28 | O=S(=O)(Nc1ncns1)c1ccc2c(N3CCC[C@H]3c3ccncc3)cccc2c1 (single isomer, unassigned) [Example 89] | 290 | 2330 | –
29 | O=S(=O)(Nc1nccs1)c1ccc2c(C3CCCN3C3CCOCC3)cccc2c1 (centres unmarked) [Example 102, 5-(1-(TETRAHYDRO-2H-PYRAN-4-YL)PYRROLIDIN-2-YL)-N-(THIAZOL-2-YL)NAPHTHALENE-2-SULFONAMIDE 2,2,2-TRIFLUOROACETATE] | 110 | 1540 | –

From US9012443B2 (Amgen Inc., priority 2011, dated 2015)
